Test results published in the supplement of paper PMC10307832.

Columns and labels:
Experiment in all cases: relative viability (nuclei count vs DMSO), 5 days (fraction); higher = more cells survive
NCI-H1734 = test system: NCI-H1734
Outline: (§1)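 Relative viability was taken as the ratio of nuclei in treated wells to nuclei in vehicle wells. Lung cancer cell lines in 1536-well plates received compounds by pin tool one day after seeding, either one drug alone or a fixed anchor-drug dose plus five library-drug doses (not always all listed) in √10 steps. Nuclei were counted on 4× images after 5 days of treatment, and values are medians of duplicate plates.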

NCI-H358 = test system: NCI-H358
Outline: as §1

NCI-H2228 = test system: NCI-H2228
Outline: as §1

COR-L23 = test system: COR-L23
Outline: as §1

NCI-H1355 = test system: NCI-H1355
Outline: as §1

NCI-H1792 = test system: NCI-H1792
Outline: as §1

NCI-H1395 = test system: NCI-H1395
Outline: as §1

HCC-15 = test system: HCC-15
Outline: as §1

HARA = test system: HARA
Outline: as §1

NCI-H1993 = test system: NCI-H1993
Outline: as §1

NCI-H838 = test system: NCI-H838
Outline: as §1

SMILES: CCN(CC)CCCCNc1ncc2cc(-c3cc(OC)cc(OC)c3)c(NC(=O)NC(C)(C)C)nc2n1 + COc1cccc2cc(-c3nc([C@H]4CC[C@H](C(=O)O)CC4)n4ncnc(N)c34)[nH]c12 [OSI-027] (partner 0.5 µM)
- relative viability (NCI-H1734; first compound 0.01 µM): 0.647
- relative viability (NCI-H1734; first compound 0.03162 µM): 0.61
- relative viability (NCI-H1734; first compound 0.1 µM): 0.634
- relative viability (NCI-H1734; first compound 0.3162 µM): 0.666
- relative viability (NCI-H1734; first compound 1 µM): 0.526
- relative viability (NCI-H358; first compound 0.01 µM): 0.791
- relative viability (NCI-H358; first compound 0.03162 µM): 0.803
- relative viability (NCI-H358; first compound 0.1 µM): 1.12
- relative viability (NCI-H358; first compound 0.3162 µM): 0.996
- relative viability (NCI-H358; first compound 1 µM): 0.694
- relative viability (NCI-H2228; first compound 0.01 µM): 0.599
- relative viability (NCI-H2228; first compound 0.03162 µM): 0.505
- relative viability (NCI-H2228; first compound 0.1 µM): 0.582
- relative viability (NCI-H2228; first compound 0.3162 µM): 0.63
- relative viability (NCI-H2228; first compound 1 µM): 0.363
- relative viability (COR-L23; first compound 0.01 µM): 1.19
- relative viability (COR-L23; first compound 0.03162 µM): 0.873
- relative viability (COR-L23; first compound 0.1 µM): 1.06
- relative viability (COR-L23; first compound 0.3162 µM): 1.07
- relative viability (COR-L23; first compound 1 µM): 0.503
- relative viability (NCI-H1355; first compound 0.01 µM): 0.405
- relative viability (NCI-H1355; first compound 0.03162 µM): 0.404
- relative viability (NCI-H1355; first compound 0.1 µM): 0.417
- relative viability (NCI-H1355; first compound 0.3162 µM): 0.45
- relative viability (NCI-H1355; first compound 1 µM): 0.367
- relative viability (NCI-H1792; first compound 0.01 µM): 0.602
- relative viability (NCI-H1792; first compound 0.03162 µM): 0.783
- relative viability (NCI-H1792; first compound 0.1 µM): 0.706
- relative viability (NCI-H1792; first compound 0.3162 µM): 0.723
- relative viability (NCI-H1792; first compound 1 µM): 0.523
- relative viability (NCI-H1395; first compound 0.01 µM): 0.578
- relative viability (NCI-H1395; first compound 0.03162 µM): 0.697
- relative viability (NCI-H1395; first compound 0.1 µM): 0.745
- relative viability (NCI-H1395; first compound 0.3162 µM): 0.554
- relative viability (NCI-H1395; first compound 1 µM): 0.458
- relative viability (HCC-15; first compound 0.01 µM): 0.662
- relative viability (HCC-15; first compound 0.03162 µM): 0.673
- relative viability (HCC-15; first compound 0.1 µM): 0.717
- relative viability (HCC-15; first compound 0.3162 µM): 0.936
- relative viability (HCC-15; first compound 1 µM): 0.577
- relative viability (HARA; first compound 0.01 µM): 0.522
- relative viability (HARA; first compound 0.03162 µM): 0.647
- relative viability (HARA; first compound 0.1 µM): 0.429
- relative viability (HARA; first compound 0.3162 µM): 0.697
- relative viability (HARA; first compound 1 µM): 0.446
- relative viability (NCI-H1993; first compound 0.01 µM): 0.259
- relative viability (NCI-H1993; first compound 0.03162 µM): 0.559
- relative viability (NCI-H1993; first compound 0.1 µM): 0.532
- relative viability (NCI-H1993; first compound 0.3162 µM): 0.604
- relative viability (NCI-H1993; first compound 1 µM): 0.535
- relative viability (NCI-H838; first compound 0.01 µM): 0.373
- relative viability (NCI-H838; first compound 0.03162 µM): 0.39
- relative viability (NCI-H838; first compound 0.1 µM): 0.449
- relative viability (NCI-H838; first compound 0.3162 µM): 0.377
- relative viability (NCI-H838; first compound 1 µM): 0.273
